Experimental data from ChEMBL document CHEMBL4602617, “Discovery and optimization of heteroaryl piperazines as potent and selective PI3Kδ inhibitors” (Bioorg Med Chem Lett, 2020).

Tests used:
[1] = molecular target: Proto-oncogene tyrosine-protein kinase ROS (Homo sapiens, UniProt P08922); experiment: Inhibition of recombinant human GST-tagged ROS1 cytoplasmic domain expressed in baculovirus expression system using tyrosine-2 peptide as substrate incubated for 60 mins in presence of ATP by Z'-LYTE assay
Caspase-9 (Homo sapiens) = Caspase-9 (Homo sapiens) (UniProt P55211); experiment: Inhibition of recombinant human caspase 9 expressed in Escherichia coli at 10 uM using Ac-LEHD-AFC as substrate after 60 mins by spectrophotometric analysis relative to control
[2] = molecular target: Beta-3 adrenergic receptor (Homo sapiens) (UniProt P13945); experiment: Displacement of [125I]cyanopindolol from full-length recombinant human beta3 adrenergic receptor expressed in HEK293 cell membranes at 10 uM measured after 90 mins by scintillation counting method relative to control
[3] = molecular target: Serine/threonine-protein kinase B-raf (Homo sapiens, UniProt P15056, V600E); experiment: Inhibition of […] N-terminal GST-tagged human BRAF V599E mutant (416 to 766 residues) expressed in baculovirus expression system using Ser/Thr 03 as substrate after 1 hr in presence of ATP by Z'-LYTE assay
[4] = molecular target: Tyrosine-protein kinase Fes/Fps (Homo sapiens, UniProt P07332); experiment: Inhibition of recombinant His-tagged full length human FES expressed in baculovirus expression system using Tyr 01 peptide as substrate after 1 hr by Z'-LYTE assay
Homo sapiens = species: Homo sapiens; experiment: Selectivity index, ratio IC50 for inhibition of recombinant human N-terminal His6-tagged full-length p120gamma expressed in Sf21 insect cells to ratio IC50 for inhibition of recombinant human full-length N-terminal GST-tagged p110delta/untagged full-length p85alpha expressed in baculovirus infected Sf21 cells
[5] = molecular target: Thyrotropin-releasing hormone receptor (Rattus norvegicus) (UniProt Q01717); experiment: Inhibition of rat TRH receptor at 10 uM relative to control
[6] = molecular target: PI3-kinase p110-delta/p85-alpha (Homo sapiens, UniProt O00329); experiment: Inhibition of His-tagged recombinant human PI3K p110delta/p85alpha expressed in baculovirus expression system using PIP2:PS lipid as substrate in presence of ATP after 1 hr by Adapta assay
[7] = molecular target: Tyrosine-protein kinase Fer (Homo sapiens, UniProt P16591); experiment: Inhibition of recombinant GST-tagged human FER (541 to 822 residues) cytoplasmic domain expressed in baculovirus expression system using Tyr 05 peptide as substrate after 1 hr in presence of ATP by Z'-LYTE assay
[8] = molecular target: D(1A) dopamine receptor (Homo sapiens) (UniProt P21728); experiment: Displacement of [3H]SCH-23390 from recombinant full length human recombinant dopamine D1 receptor expressed in CHO cells at 10 uM measured after 120 mins by radiometric scintillation analysis relative to control; format: cell-based
[9] = Unbound clearance in dog at 0.5 mg/kg, iv or 1 mg/kg, po; format: ADME, organism-based, Canis lupus familiaris; settings: in vivo
[10] = molecular target: Serine/threonine-protein kinase PLK3 (Homo sapiens, UniProt Q9H4B4); experiment: Inhibition of recombinant human GST-tagged PLK3 catalytic domain (58 to 340 residues) expressed in baculovirus expression system using serine/threonine-16 peptide as substrate incubated for 60 mins in presence of ATP by Z'-LYTE assay
[11] = molecular target: Serine/threonine-protein kinase PAK 4 (Homo sapiens, UniProt O96013); experiment: Inhibition of recombinant human GST-tagged PAK4 catalytic domain (295 to 591 residues) expressed in baculovirus expression system using serine/threonine-20 peptide as substrate incubated for 60 mins in presence of ATP by Z'-LYTE assay
[12] = molecular target: G protein-coupled receptor kinase 3 (Homo sapiens, UniProt P35626); experiment: Inhibition of recombinant full length human GST-tagged GRK3 expressed in baculovirus expression system using serine/threonine-16 peptide as substrate incubated for 60 mins in presence of ATP by Z'-LYTE assay
Angiopoietin-1 receptor = Angiopoietin-1 receptor (Homo sapiens, UniProt Q02763); experiment: Inhibition of recombinant human GST-tagged TIE2 (817 to 1101 residues) expressed in baculovirus expression system using tyrosine-5 peptide as substrate incubated for 60 mins in presence of ATP by Z'-LYTE assay
[13] = molecular target: Protein kinase C theta type (Homo sapiens, UniProt Q04759); experiment: Inhibition of recombinant full length human His-tagged PKCtheta expressed in baculovirus expression system using serine/threonine-7 peptide as substrate incubated for 60 mins in presence of ATP by Z'-LYTE assay
[14] = molecular target: Cannabinoid receptor 1 (Homo sapiens) (UniProt P21554); experiment: Inhibition of human CB1 receptor at 10 uM relative to control
[15] = molecular target: Tyrosine-protein kinase ITK/TSK (Homo sapiens, UniProt Q08881); experiment: Inhibition of recombinant full length human GST-tagged ITK expressed in baculovirus expression system using tyrosine-1 peptide as substrate incubated for 60 mins in presence of ATP by Z'-LYTE assay
Activin receptor type-1B = Activin receptor type-1B (Homo sapiens, UniProt P36896); experiment: Inhibition of recombinant GST-tagged human ALK4 (150 to 505 residues) expressed in baculovirus expression system using Ser/Thr-16 peptide as substrate incubated for 60 mins in presence of ATP by Z'-LYTE assay
[16] = molecular target: Substance-K receptor (Homo sapiens) (UniProt P21452); experiment: Inhibition of human NK2 receptor at 10 uM relative to control
[17] = molecular target: Epidermal growth factor receptor (Homo sapiens, UniProt P00533); experiment: Inhibition of human EGFR (668 to 1210 residues) expressed in insect cells at 10 uM using Poly(Glu:Tyr) as substrate after 30 mins by radiometric scintillation analysis relative to control
[18] = molecular target: B2 bradykinin receptor (Homo sapiens) (UniProt P30411); experiment: Displacement of [3H]bradykinin from recombinant full length human recombinant bradykinin B2 receptor expressed in Chem-1 cells at 10 uM measured after 60 mins by radiometric scintillation analysis relative to control; format: cell-based
[19] = molecular target: Serine/threonine-protein kinase TAO2 (Homo sapiens, UniProt Q9UL54); experiment: Inhibition of recombinant human GST-tagged TAO2 catalytic domain (1 to 314 residues) expressed in baculovirus expression system using serine/threonine-7 peptide as substrate incubated for 60 mins in presence of ATP by Z'-LYTE assay
[20] = molecular target: Vasopressin V2 receptor (Homo sapiens) (UniProt P30518); experiment: Displacement of [3H]-(Arg8)-Vasopressin from recombinant full length human V2 receptor expressed in CHO-K1 cells at 10 uM after 120 mins by radiometric scintillation analysis relative to control; format: cell-based
[21] = molecular target: Dual specificity mitogen-activated protein kinase kinase 1 (Homo sapiens, UniProt Q02750); experiment: Inhibition of recombinant full length human His-tagged MEK1 expressed in baculovirus expression system using serine/threonine-3 peptide as substrate incubated for 60 mins in presence of ATP by Z'-LYTE assay
[22] = molecular target: Serine/threonine-protein kinase 24 (Homo sapiens, UniProt Q9Y6E0); experiment: Inhibition of recombinant full length human GST-tagged MST3 expressed in baculovirus expression system using serine/threonine-7 peptide as substrate incubated for 60 mins in presence of ATP by Z'-LYTE assay

Serine/threonine-protein kinase B-raf, sequence (P15056 2-766 V600E limits assumed): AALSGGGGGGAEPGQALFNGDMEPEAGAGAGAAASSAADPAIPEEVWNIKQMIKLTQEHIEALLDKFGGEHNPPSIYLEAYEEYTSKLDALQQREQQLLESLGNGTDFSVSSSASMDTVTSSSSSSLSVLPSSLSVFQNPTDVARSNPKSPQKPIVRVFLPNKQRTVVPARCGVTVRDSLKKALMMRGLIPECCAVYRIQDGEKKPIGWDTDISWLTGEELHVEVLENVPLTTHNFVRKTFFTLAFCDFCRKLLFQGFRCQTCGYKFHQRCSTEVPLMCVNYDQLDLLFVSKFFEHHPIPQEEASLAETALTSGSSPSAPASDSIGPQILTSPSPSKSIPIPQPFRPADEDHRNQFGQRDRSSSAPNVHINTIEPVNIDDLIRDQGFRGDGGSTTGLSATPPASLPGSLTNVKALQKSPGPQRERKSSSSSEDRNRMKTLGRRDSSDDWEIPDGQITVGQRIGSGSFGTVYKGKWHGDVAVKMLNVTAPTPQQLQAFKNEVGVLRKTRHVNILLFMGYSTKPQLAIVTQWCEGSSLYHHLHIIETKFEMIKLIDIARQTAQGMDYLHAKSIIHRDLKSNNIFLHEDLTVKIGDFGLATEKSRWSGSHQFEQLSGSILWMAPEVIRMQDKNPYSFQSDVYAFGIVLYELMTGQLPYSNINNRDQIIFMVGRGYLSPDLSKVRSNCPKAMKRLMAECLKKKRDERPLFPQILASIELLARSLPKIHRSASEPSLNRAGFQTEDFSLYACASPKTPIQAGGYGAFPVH
Substance-K receptor (Homo sapiens), sequence (P21452 whole entry, the tested form may be a part): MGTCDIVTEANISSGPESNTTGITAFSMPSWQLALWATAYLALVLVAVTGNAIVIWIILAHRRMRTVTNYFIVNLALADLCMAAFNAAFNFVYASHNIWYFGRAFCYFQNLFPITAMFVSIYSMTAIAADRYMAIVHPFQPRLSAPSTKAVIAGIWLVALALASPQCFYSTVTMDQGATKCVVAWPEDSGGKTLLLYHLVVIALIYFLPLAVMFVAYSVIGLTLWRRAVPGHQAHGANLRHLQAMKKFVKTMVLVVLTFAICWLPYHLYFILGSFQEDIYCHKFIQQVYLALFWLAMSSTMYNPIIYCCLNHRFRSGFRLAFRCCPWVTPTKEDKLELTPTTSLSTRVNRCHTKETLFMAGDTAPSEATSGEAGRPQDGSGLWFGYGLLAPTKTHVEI
Activin receptor type-1B, sequence (P36896 whole entry, the tested form may be a part): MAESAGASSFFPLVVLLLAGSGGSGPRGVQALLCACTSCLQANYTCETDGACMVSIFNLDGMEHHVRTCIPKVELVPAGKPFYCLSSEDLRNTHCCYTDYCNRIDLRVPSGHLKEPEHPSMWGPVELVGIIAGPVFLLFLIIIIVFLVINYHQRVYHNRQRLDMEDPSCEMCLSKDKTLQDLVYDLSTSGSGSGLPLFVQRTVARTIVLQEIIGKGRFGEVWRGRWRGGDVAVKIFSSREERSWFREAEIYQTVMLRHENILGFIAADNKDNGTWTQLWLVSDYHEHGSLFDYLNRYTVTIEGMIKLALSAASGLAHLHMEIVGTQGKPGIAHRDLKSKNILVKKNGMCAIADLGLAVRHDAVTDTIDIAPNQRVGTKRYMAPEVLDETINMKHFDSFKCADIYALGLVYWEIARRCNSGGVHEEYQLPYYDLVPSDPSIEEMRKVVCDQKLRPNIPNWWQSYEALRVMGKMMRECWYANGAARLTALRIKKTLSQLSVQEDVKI
B2 bradykinin receptor (Homo sapiens), sequence (P30411 whole entry, the tested form may be a part): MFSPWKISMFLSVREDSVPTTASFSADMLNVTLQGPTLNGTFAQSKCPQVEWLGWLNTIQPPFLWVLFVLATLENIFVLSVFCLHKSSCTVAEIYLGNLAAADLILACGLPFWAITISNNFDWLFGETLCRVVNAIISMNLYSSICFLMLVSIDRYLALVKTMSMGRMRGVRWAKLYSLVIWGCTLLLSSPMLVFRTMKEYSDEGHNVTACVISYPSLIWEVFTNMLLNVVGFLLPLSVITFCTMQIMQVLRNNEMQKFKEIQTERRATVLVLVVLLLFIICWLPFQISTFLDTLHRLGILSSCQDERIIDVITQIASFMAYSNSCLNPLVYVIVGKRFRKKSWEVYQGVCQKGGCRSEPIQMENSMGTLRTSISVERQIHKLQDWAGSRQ
Angiopoietin-1 receptor, sequence (Q02763 whole entry, the tested form may be a part): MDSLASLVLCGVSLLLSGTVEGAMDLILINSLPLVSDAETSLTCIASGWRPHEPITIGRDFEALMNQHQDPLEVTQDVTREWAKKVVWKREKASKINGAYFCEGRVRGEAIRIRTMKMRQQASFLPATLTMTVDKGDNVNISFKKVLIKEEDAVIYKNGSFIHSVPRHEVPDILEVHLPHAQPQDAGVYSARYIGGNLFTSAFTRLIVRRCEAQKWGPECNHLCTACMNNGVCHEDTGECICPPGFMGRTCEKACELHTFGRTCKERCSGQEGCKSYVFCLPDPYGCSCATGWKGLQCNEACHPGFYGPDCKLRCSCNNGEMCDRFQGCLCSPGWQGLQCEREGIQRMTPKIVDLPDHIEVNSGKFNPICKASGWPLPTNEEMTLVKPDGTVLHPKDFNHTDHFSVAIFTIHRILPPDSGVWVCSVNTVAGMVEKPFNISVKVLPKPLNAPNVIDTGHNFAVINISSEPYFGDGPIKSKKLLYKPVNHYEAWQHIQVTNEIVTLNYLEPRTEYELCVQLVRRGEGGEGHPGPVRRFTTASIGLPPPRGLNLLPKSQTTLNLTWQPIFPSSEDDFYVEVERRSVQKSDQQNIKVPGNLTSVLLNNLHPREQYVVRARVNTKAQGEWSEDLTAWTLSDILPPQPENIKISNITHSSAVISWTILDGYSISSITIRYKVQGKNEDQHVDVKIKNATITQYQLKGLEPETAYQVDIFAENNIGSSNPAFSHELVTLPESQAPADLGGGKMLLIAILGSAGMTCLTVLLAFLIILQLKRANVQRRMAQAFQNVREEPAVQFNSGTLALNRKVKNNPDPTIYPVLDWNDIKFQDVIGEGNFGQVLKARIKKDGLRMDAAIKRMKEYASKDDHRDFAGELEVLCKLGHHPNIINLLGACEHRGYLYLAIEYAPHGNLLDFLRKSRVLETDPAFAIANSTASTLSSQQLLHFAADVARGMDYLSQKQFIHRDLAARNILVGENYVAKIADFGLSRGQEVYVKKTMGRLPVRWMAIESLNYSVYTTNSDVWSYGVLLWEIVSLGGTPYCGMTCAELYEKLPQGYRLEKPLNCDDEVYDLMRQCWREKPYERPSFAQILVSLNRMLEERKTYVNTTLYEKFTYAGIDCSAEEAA
Vasopressin V2 receptor (Homo sapiens), sequence (P30518 whole entry): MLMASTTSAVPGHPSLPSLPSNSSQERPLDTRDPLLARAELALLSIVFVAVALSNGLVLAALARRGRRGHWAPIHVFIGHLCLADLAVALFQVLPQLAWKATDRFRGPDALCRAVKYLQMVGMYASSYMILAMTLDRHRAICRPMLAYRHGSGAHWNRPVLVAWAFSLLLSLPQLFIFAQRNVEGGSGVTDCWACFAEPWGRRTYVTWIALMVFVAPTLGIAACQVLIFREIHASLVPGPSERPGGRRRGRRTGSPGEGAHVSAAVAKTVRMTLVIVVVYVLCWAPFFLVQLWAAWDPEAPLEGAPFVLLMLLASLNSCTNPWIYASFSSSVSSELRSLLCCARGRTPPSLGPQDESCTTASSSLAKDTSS
Thyrotropin-releasing hormone receptor (Rattus norvegicus), sequence (Q01717 whole entry): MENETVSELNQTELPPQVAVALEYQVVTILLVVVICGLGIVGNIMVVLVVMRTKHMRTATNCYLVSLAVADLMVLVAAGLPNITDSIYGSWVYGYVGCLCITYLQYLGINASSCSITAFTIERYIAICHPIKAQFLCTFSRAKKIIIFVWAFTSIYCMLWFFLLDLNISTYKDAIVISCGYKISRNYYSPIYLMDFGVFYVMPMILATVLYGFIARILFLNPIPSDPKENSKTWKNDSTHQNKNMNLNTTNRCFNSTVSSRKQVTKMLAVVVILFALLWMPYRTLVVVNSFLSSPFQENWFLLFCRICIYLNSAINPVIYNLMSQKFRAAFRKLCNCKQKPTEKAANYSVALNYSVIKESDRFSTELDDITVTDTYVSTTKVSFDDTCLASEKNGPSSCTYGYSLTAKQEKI
Tyrosine-protein kinase ITK/TSK, sequence (Q08881 whole entry, the tested form may be a part): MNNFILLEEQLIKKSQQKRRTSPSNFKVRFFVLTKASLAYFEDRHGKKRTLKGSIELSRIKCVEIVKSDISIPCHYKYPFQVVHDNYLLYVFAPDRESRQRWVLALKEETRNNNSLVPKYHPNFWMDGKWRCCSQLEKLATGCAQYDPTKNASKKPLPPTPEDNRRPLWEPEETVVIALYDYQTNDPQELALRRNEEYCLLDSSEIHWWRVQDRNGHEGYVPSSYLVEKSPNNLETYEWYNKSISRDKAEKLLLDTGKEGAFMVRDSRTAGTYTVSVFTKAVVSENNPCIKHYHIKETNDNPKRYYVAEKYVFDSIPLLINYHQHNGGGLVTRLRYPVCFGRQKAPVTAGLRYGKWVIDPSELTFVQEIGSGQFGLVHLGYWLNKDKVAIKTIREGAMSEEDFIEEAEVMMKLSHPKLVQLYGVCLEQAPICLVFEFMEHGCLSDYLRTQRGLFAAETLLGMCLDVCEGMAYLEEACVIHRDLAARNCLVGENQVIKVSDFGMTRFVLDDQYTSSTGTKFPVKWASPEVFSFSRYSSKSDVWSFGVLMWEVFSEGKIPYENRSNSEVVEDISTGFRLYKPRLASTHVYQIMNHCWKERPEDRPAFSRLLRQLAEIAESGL
Beta-3 adrenergic receptor (Homo sapiens), sequence (P13945 whole entry, looked up, the tested form may be a part): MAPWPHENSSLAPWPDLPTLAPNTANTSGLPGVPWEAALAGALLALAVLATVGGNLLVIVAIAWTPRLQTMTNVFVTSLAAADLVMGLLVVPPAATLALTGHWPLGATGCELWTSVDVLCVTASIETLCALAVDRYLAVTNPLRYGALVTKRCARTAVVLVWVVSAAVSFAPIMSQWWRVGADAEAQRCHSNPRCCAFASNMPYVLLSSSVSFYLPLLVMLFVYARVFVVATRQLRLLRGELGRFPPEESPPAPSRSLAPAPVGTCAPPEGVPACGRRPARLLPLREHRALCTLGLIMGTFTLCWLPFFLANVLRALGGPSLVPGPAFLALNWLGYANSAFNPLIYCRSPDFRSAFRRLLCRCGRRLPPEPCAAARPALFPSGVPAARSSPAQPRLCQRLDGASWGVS

For `C[C@@H]1C[C@H]1C(=O)N1CCN(c2cnc(C#N)c(-c3cnn(C)c3)n2)C[C@H]1C`, the IC50 [1] was > 100 µM, the inhibition (Caspase-9 (Homo sapiens)) was 2% and the inhibition [2] was -1%. The IC50 [3] was > 100 µM, the IC50 [4] was > 100 µM and the Ratio IC50 (Homo sapiens) was 847. The inhibition [5] was 0%, the IC50 [6] was 0.884 µM and the IC50 [7] was > 100 µM. For the same molecule, the inhibition [8] was 2%, the CL free [9] was 2.22 L/h/kg and the IC50 [10] was > 100 µM. For the same molecule, the IC50 [11] was > 100 µM, the IC50 [12] was > 100 µM and the IC50 (Angiopoietin-1 receptor) was > 100 µM. The IC50 [13] was > 100 µM, the inhibition [14] was -1% and the IC50 [15] was > 100 µM. The IC50 (Activin receptor type-1B) was > 100 µM, the inhibition [16] was 1% and the inhibition [17] was -9%. The inhibition [18] was 6%, the IC50 [19] was > 100 µM and the inhibition [20] was 1%. For the same molecule, the IC50 [21] was > 100 µM and the IC50 [22] was > 100 µM.
